Tested on: RhoBAST (RNA, aptamer) GGAACCUCCGCGAAAGCGGUGAAGGAGAGGCGCAAGGUUAACCGCCUCAGGUUCC
Test: fluorescence titration, fixed dye, aptamer varied
Details: 125 mM KCl, 1 mM MgCl2; 20 mM HEPES pH 7.4, 0.05% Tween 20, 25 °C, 10 nM dye

KD: 100 ± 8 nM
SMILES: CN(C)S(=O)(=O)N1C(=O)c2ccccc2C12c1ccc(N3CCC3)cc1Oc1cc(N3CCC3)ccc12
